Measured values from ChEMBL document CHEMBL1145534 (2007).
≈ marks a conversion by molar mass, not a printed value.

Key:
Assay type in all cases: functional
Enterococcus gallinarum [1] = test: Antimicrobial activity against Enterococcus gallinarum by broth microdilution method
Streptococcus gordonii [2] = test: Antimicrobial activity against viridans group Streptococcus gordonii at 0.25 ug/ml by broth microdilution method
Listeria monocytogenes [3] = test: Antimicrobial activity against Listeria monocytogenes at 2 ug/ml by broth microdilution method
Micrococcus luteus = test: Antimicrobial activity against Micrococcus luteus at 0.5 ug/ml by broth microdilution method
Enterococcus gallinarum [4] = test: Antimicrobial activity against Enterococcus gallinarum at 4 ug/ml by broth microdilution method
Streptococcus mutans [5] = test: Antimicrobial activity against viridans group Streptococcus mutans at 0.25 ug/ml by broth microdilution method
[6] = tested on: Enterococcus casseliflavus; test: Antimicrobial activity against Enterococcus casseliflavus at <= 0.06 ug/ml by broth microdilution method
[7] = tested on: Streptococcus constellatus; test: Antimicrobial activity against viridans group Streptococcus constellatus by broth microdilution method
Rothia mucilaginosa [8] = test: Antimicrobial activity against Rothia mucilaginosa at 2 ug/ml by broth microdilution method
Corynebacterium sp. [9] = test: Antimicrobial activity against Corynebacterium spp. at 0.12 ug/ml by broth microdilution method
Enterococcus gallinarum [10] = test: Antimicrobial activity against Enterococcus gallinarum at 0.12 ug/ml by broth microdilution method
Enterococcus hirae [11] = test: Antimicrobial activity against Enterococcus hirae at 1 ug/ml by broth microdilution method
[12] = tested on: Streptococcus intermedius; test: Antimicrobial activity against viridans group Streptococcus intermedius at <= 0.06 ug/ml by broth microdilution method
Enterococcus avium [13] = test: Antimicrobial activity against Enterococcus avium at 0.25 ug/ml by broth microdilution method
Streptococcus gordonii [14] = test: Antimicrobial activity against viridans group Streptococcus gordonii by broth microdilution method
[15] = tested on: Streptococcus parasanguinis; test: Antimicrobial activity against viridans group Streptococcus parasanguis at 0.25 ug/ml by broth microdilution method
[16] = tested on: Streptococcus intermedius; test: Antimicrobial activity against viridans group Streptococcus intermedius at 1 ug/ml by broth microdilution method
Listeria monocytogenes [17] = test: Antimicrobial activity against Listeria monocytogenes at 0.25 ug/ml by broth microdilution method
Enterococcus hirae [18] = test: Antimicrobial activity against Enterococcus hirae at 2 ug/ml by broth microdilution method
Listeria monocytogenes [19] = test: Antimicrobial activity against Listeria monocytogenes by broth microdilution method
Corynebacterium sp. [20] = test: Antimicrobial activity against Corynebacterium spp. at 1 ug/ml by broth microdilution method
Rothia mucilaginosa [21] = test: Antimicrobial activity against Rothia mucilaginosa at 0.5 ug/ml by broth microdilution method
Listeria monocytogenes [22] = test: Antimicrobial activity against Listeria monocytogenes at 0.12 ug/ml by broth microdilution method
Corynebacterium sp. [23] = test: Antimicrobial activity against Corynebacterium spp. at 0.5 ug/ml by broth microdilution method
Streptococcus oralis = test: Antimicrobial activity against viridans group Streptococcus oralis at 0.25 ug/ml by broth microdilution method
[24] = tested on: Streptococcus parasanguinis; test: Antimicrobial activity against viridans group Streptococcus parasanguis at <= 0.06 ug/ml by broth microdilution method
Enterococcus avium [25] = test: Antimicrobial activity against Enterococcus avium at 1 ug/ml by broth microdilution method
[26] = tested on: Enterococcus casseliflavus; test: Antimicrobial activity against Enterococcus casseliflavus at 0.12 ug/ml by broth microdilution method
Streptococcus mutans [27] = test: Antimicrobial activity against viridans group Streptococcus mutans at 0.12 ug/ml by broth microdilution method
Streptococcus equinus [28] = test: Antimicrobial activity against viridans group Streptococcus bovis at 0.5 ug/ml by broth microdilution method
Streptococcus equinus [29] = test: Antimicrobial activity against viridans group Streptococcus bovis at 2 ug/ml by broth microdilution method
Enterococcus gallinarum [30] = test: Antimicrobial activity against Enterococcus gallinarum at 1 ug/ml by broth microdilution method
[31] = tested on: Corynebacterium pseudodiphtheriticum; test: Antimicrobial activity against Corynebacterium pseudodiphtheriticum by broth microdilution method
Streptococcus sanguinis = test: Antimicrobial activity against viridans group Streptococcus sanguinis at <= 0.06 ug/ml by broth microdilution method
Corynebacterium striatum = test: Antimicrobial activity against Corynebacterium striatum by broth microdilution method
[32] = tested on: Streptococcus vestibularis; test: Antimicrobial activity against viridans group Streptococcus vestibularis at 0.25 ug/ml by broth microdilution method

## CC(=O)NC[C@H]1CN(c2ccc(N3CCOCC3)c(F)c2)C(=O)O1 [LINEZOLID]
Enterococcus gallinarum [1]
  MIC50: 2 mg/L (≈ 5.93 µM)
  MIC90: 2 mg/L (≈ 5.93 µM)
Streptococcus gordonii [2]
  inhibition at 0.25 µg/mL: 0%
Listeria monocytogenes [3]
  inhibition at 2 µg/mL: 100%
Micrococcus luteus
  inhibition at 0.5 µg/mL: 75.9%
Enterococcus gallinarum [4]
  inhibition at 4 µg/mL: 100%
Streptococcus mutans [5]
  inhibition at 0.25 µg/mL: 0%
[6]
  Inhibition: 0%
[7]
  MIC50: 1 mg/L (≈ 2.96 µM)
  MIC90: 1 mg/L (≈ 2.96 µM)
Rothia mucilaginosa [8]
  inhibition at 2 µg/mL: 100%
Corynebacterium sp. [9]
  inhibition at 0.12 µg/mL: 13.6%
Enterococcus gallinarum [10]
  inhibition at 0.12 µg/mL: 0%
Enterococcus hirae [11]
  inhibition at 1 µg/mL: 37.5%
[12]
  Inhibition: 0%
Enterococcus avium [13]
  inhibition at 0.25 µg/mL: 0%
Streptococcus gordonii [14]
  MIC50: 1 mg/L (≈ 2.96 µM)
  MIC90: 1 mg/L (≈ 2.96 µM)
[15]
  inhibition at 0.25 µg/mL: 0%
[16]
  inhibition at 1 µg/mL: 87.9%
Listeria monocytogenes [17]
  inhibition at 0.25 µg/mL: 0%
Enterococcus hirae [18]
  inhibition at 2 µg/mL: 100%
Listeria monocytogenes [19]
  MIC50: 2 mg/L (≈ 5.93 µM)
  MIC90: 2 mg/L (≈ 5.93 µM)
Corynebacterium sp. [20]
  inhibition at 1 µg/mL: 99.6%
Rothia mucilaginosa [21]
  inhibition at 0.5 µg/mL: 83.3%
Listeria monocytogenes [22]
  inhibition at 0.12 µg/mL: 0%
Corynebacterium sp. [23]
  inhibition at 0.5 µg/mL: 92.4%
Streptococcus oralis
  inhibition at 0.25 µg/mL: 3.6%
[24]
  Inhibition: 0%
Enterococcus avium [25]
  inhibition at 1 µg/mL: 52.6%
[26]
  inhibition at 0.12 µg/mL: 0%
Streptococcus mutans [27]
  inhibition at 0.12 µg/mL: 0%
Streptococcus equinus [28]
  inhibition at 0.5 µg/mL: 23.8%
Streptococcus equinus [29]
  inhibition at 2 µg/mL: 100%
Enterococcus gallinarum [30]
  inhibition at 1 µg/mL: 30.3%
[31]
  MIC50: 0.5 mg/L (≈ 1.48 µM)
  MIC90: 0.5 mg/L (≈ 1.48 µM)
Streptococcus sanguinis
  Inhibition: 0%
Corynebacterium striatum
  MIC50: 0.25 mg/L (≈ 0.741 µM)
  MIC90: 0.5 mg/L (≈ 1.48 µM)
[32]
  inhibition at 0.25 µg/mL: 0%
